Entries after “also recorded” stand apart in the source; their conditions may differ. Structures can show the parent of a compound that is named as a salt. Where two headings read alike, the source gives them in different places.

For series [1], the system named is late passage prostate epithelial cells. The format is cell-based. To be noted: for increase of total cell number after 5 days: KSFM plus individual compound alone at 5 μM; for increase of total cell number after 5 days / cell proliferation when used together with A83-01: 1 μM, 0.2 μM; for cell proliferation when used together with A83-01: KSFM supplemented with A83-01 plus compound at 5 μM, 5 days. The source says:
As described above, these include Rho kinase inhibitors (i.e., Rho-associated protein kinase inhibitors) such as Y-27632, SR 3677, GSK 429286 and Thiazovivin; PAK1 inhibitor IPA-3; and myosin II inhibitor (i.e., non-muscle myosin II (NM II) inhibitor) Blebbistatin.

The subject of series [2] is human telomerase reverse transcriptase (hTERT) expression in bronchial epithelial cells. Briefly: hTERT expression by quantitative real-time PCR in bronchial epithelial cells. The series is classed as cell-based. Particulars: KSFM. The procedure: (§1) Total RNA was prepared using TRIzol® Plus RNA Purification Kit (Life Technologies, 12183-555) and PureLink® RNA Mini Kit (Life Technologies, 12183018A), following the manufacturer's instructions. One hundred nanogram total RNA was used for the determination of human telomerase reverse transcriptase (hTERT) expression using the TaqMan® RNA-to-CT™ 1-Step Kit (Life Technologies, 4392938), following the protocol provided by the supplier. hTERT primers and Taqman probe used were as follows: forward primer, 5′-[…]-3′ (SEQ ID NO:1), reverse primer, 5′-[…]-3′ (SEQ ID NO:2) and Taqman probe, 5′-[…]-3′ (SEQ ID NO:3).
(§2) In this example, hTERT expression in epithelial cells was assessed in the presence of an ALK5 inhibitor, a Rho kinase inhibitor (i.e., a Rho-associated protein kinase inhibitor), or both. Expression of hTERT gene was examined by quantitative real-time PCR in bronchial epithelial cells and prostate epithelial cells. The cells were treated with an ALK5 inhibitor, A83-01, or a Rho kinase inhibitor (i.e., a Rho-associated protein kinase inhibitor), Y-27632, or both inhibitors, at different passages in KSFM.
On the technique in general: Real-time PCR tracks product formation cycle by cycle.

The test system of series [3] is human telomerase reverse transcriptase (hTERT) expression in prostate epithelial cells. Kind of series: hTERT expression by quantitative real-time PCR in prostate epithelial cells. The series is classed as cell-based. To be noted: KSFM. The procedure:
as §1, §2
As shown in FIG. 6A and FIG. 6B, prostate epithelial cells at early passage (p2) expressed low level of hTERT, which quickly diminished at passage 3 and became non-detectable by passage 5.

In series [4] the test system is prostate epithelial cells. Kind of series: Plating efficiency of prostate epithelial cells in KSFM. The series is classed as cell-based, human. The source says: (§3) In this example, epithelial cell plating efficiency, i.e., number of cells that efficiently attach to the cell culture surfaces, continue to divide and grow into colonies, was examined under various conditions.
(§4) However, those few cells that did attach continued to proliferate.
Many prostate epithelial cells attached to regular tissue culture surface in the presence of both A83-01 and Y-27632 at day 2 after plating.

Series [5] relates to bronchial epithelial cells. Kind of series: Plating efficiency of bronchial epithelial cells in KSFM. The format is cell-based, human.
Excerpt: as §3, §4
Many bronchial epithelial cells attached to regular tissue culture surface in the presence of both A83-01 and Y-27632 at day 2 after plating.

The subject of series [6] is prostate epithelial cells. Kind of series: Growth (population doublings) of prostate epithelial cells. The series is classed as cell-based, human. Particulars: KSFM; for total population doublings: serial culture (FIG. 14). The procedure: (§5) Epithelial cells (prostate epithelial cells and bronchial epithelial cells) were plated at 3,000-10,000 viable cells/cm^2 in tissue culture vessels, using culture medium as indicated in Examples 2 to 5 and FIGS. 1 to 17, and incubated at 37° C. with 5% CO2. The medium was changed every 2 or 3 days. Cells were sub-cultured using standard trypsinization method when they were about 70-90% confluent. Total cell number was determined using the Countess II Automated Cell Counter (Life Technologies, AMQAX1000) following manufacturer's instructions.
(§6) A formula used for the calculation of population doublings (PD) is presented in Equation A: n=3.32*(log Y−log I)+X Equation A where n=the final PD number at end of a given subculture, Y=the cell yield at the time of harvesting, I=the cell number used as inoculum to begin that subculture, and X=the doubling level of the inoculum used to initiate the subculture being quantitated.
(§7) Prostate and bronchial epithelial cells were grown in KSFM in the presence of Rho kinase inhibitor (i.e., Rho-associated protein kinase inhibitor) Y-27632.
To examine the effects of additional in vitro and/or ex vivo growth conditions, prostate epithelial cells were grown in KSFM or PrEGM in the presence of media alone, ALK5 inhibitor A83-01, Rho kinase inhibitor (i.e., Rho-associated protein kinase inhibitor) Y-27632, or both (with or without collagen).

In series [7] the test system is bronchial epithelial cells. Kind of series: Growth (population doublings) of bronchial epithelial cells. The format is cell-based, human. Particulars: KSFM; for total population doublings: serial culture (FIG. 15). The procedure: as §5, §6, §7
Similar to the experiment above, bronchial epithelial cells were grown in KSFM in the presence of media alone, ALK5 inhibitor A83-01, Rho kinase inhibitor (i.e., Rho-associated protein kinase inhibitor) Y-27632, or both (with or without collagen).

Series [8] concerns human foreskin keratinocytes (HFK) and human bronchial epithelial cells (HBEC). Kind of series: Cell growth with increasing concentrations of isoproterenol. Particulars: added to KSFM plus 1 μM A83-01 and 5 μM Y-27632, six days. The format is cell-based. The procedure:
In a further investigation, epithelial cell growth was assessed in the presence of a beta-adrenergic agonist (i.e., a beta-adrenergic receptor agonist). Human foreskin keratinocytes (HFK) and human bronchial epithelial cells (HBEC) were cultured in KSFM plus 1 μM A83-01 and 5 μM Y-27632, supplemented with increasing concentrations of isoproterenol (a beta-adrenergic receptor agonist that increases cytosolic cAMP levels). Cell numbers were counted after six days to calculate cell growth relative to control.

The mark [9] stands for this setting: regular (uncoated) tissue culture surface.
Setting [10] is: added together with A83-01, regular tissue culture surface.
Setting [11] is: used alone, continuous use (FIG. 13).

Take `Cc1cccc(-c2n[nH]cc2-c2ccc3ncccc3n2)n1` [RepSox, 2-(3-(6-Methylpyridine-2-yl)-1H-pyrazol-4-yl)-1,5-naphthyridine]: in series [1], the “increase of total cell number after 5 days” value (shortened to “increase of total cell number”) is on record as “pronounced increase of total cell number” and the “cell proliferation when used together with A83-01” value (shortened to “cell proliferation”) is recorded as “little extra increase”.

Consider `CC1=C(C(=O)Nc2cc3cn[nH]c3cc2F)C(c2ccc(C(F)(F)F)cc2)CC(=O)N1` (stereo not shown) [GSK 429286, 4-[4-(Trifluoromethyl)phenyl]-N-(6-Fluoro-1H-indazol-5-yl)-2-methyl-6-oxo-1,4,5,6-tetrahydro-3-pyridinecarboxamide], for which, in series [1], the “increase of total cell number” value is “slight increase of total cell numbers” and the “cell proliferation” value is “synergistic effect”.

With `Cc1cccc(-c2nn(C(=S)Nc3ccccc3)cc2-c2ccnc3ccccc23)n1` [A83-01, 3-(6-Methyl-2-pyridinyl)-N-phenyl-4-(4-quinolinyl)-1H-pyrazole-1-carbothioamide], the hTERT expression entry in series [2] (early passage (p3)) is given as “robustly induced hTERT expression”; in series [2] (late passage (p6)) it was “sustained measurable hTERT expression”; in series [3] (early passage (p2)), “quickly induced hTERT expression”; in series [3] (late passage (p5)), “sustained measurable hTERT expression”. Further, the plating efficiency entry is recorded as “interfered with prostate epithelial cell plating efficiency” in series [4] (setting [9]) and “interfered with bronchial epithelial cell plating efficiency” in series [5] (setting [9]). Further, the total population doublings result in series [6] and in series [7] was “also increased the total population doublings” each time. Besides, the “increase of total cell number” value in series [1] was “pronounced increase of total cell number; also recorded: significantly increased”.

In the case of `C[C@@H](N)[C@H]1CC[C@H](C(=O)Nc2ccncc2)CC1.Cl.Cl` [Y-27632, (R)-(+)-trans-4-(1-Aminoethyl)-N-(4-Pyridyl)cyclohexanecarboxamide dihydrochloride], the hTERT expression entry in series [2] (early passage (p3)) is “slightly induced hTERT expression”; in series [2] (late passage (p6)), “non-detectable”; in series [3] (early passage (p2)) it was “induced hTERT expression”; in series [3] (late passage (p5)), “non-detectable”. The plating efficiency entry in series [4] (setting [10]) and in series [5] (setting [10]) was “ameliorated the low plating efficiency” in each case. The “population doubling reached shortly before senescence” value in series [6] is > 20 PD. Moreover, the total population doublings result in series [6] and in series [7] was “slightly increased the total population doublings” each time. The “proliferation at late passage” value in series [6] (setting [11]) and in series [7] (setting [11]) was “did not promote the proliferation” in each case. Moreover, in series [1] (dihydrochloride), the “increase of total cell number” value is listed as “slight increase of total cell numbers; also recorded: slight increase of cell proliferation”. Further, in series [1], the “cell proliferation” value is reported as “synergistically increased”.

As for `O=C(NCc1ccccc1)c1csc(Nc2ccncn2)n1` [Thiazovivin, N-Benzyl-[2-(pyrimidin-4-yl)amino]thiazole-4-carboxamide], in series [1], the “increase of total cell number” value is on record as “slight increase of total cell numbers” and the “cell proliferation” value is given as “synergistic effect”.

In the case of `Cc1ccc2c(c1)C(=O)C1(O)CCN(c3ccccc3)C1=N2` (racemic) [Blebbistatin, (±)-1,2,3,3a-Tetrahydro-3a-hydroxy-6-methyl-1-phenyl-4H-pyrrolo[2,3-b]quinolin-4-one], in series [1], the “increase of total cell number” value is “did not increase proliferation” and the “cell proliferation” value is “synergistically increased”.

As to `NC(=O)c1ccc(-c2nc(-c3ccc4c(c3)OCO4)c(-c3ccccn3)[nH]2)cc1` [SB 431542, 4-[4-(1,3-benzodioxol-5-yl)-5-(2-pyridinyl)-1H-imidazol-2-yl]benzamide], in series [1], the “increase of total cell number” value is reported as “pronounced increase of total cell number” and the “cell proliferation” value is recorded as “little extra increase”.

For the molecule `CN(C)CCOc1cc(-c2cn[nH]c2)ccc1NC(=O)C1COc2ccccc2O1` (stereo not shown) [SR 3677, N-[2-[2-(Dimethylamino)ethoxy]-4-(1H-pyrazol-4-yl)phenyl-2,3-dihydro-1,4-benzodioxin-2-carboxamidedi hydrochloride], in series [1], the “increase of total cell number” value is on record as “slight increase of total cell numbers” and the “cell proliferation” value is given as “synergistic effect”.

As for `CC(C)NCC(O)c1ccc(O)c(O)c1` (stereo not shown) [isoproterenol], in series [8], the “cell growth relative to control” value is on record as “further increased epithelial cells growth”.

Regarding `O=C(NC1CCOCC1)c1ccc(-c2cc(-c3c[nH]nc3-c3ccccn3)ccn2)cc1` [GW 788388, 4-[4-[3-(2-Pyridinyl)-1H-pyrazol-4-yl]-2-pyridinyl]-N-(tetrahydro-2H-pyran-4-yl)-benzamide], in series [1], the “increase of total cell number” value is given as “pronounced increase of total cell number” and the “cell proliferation” value is listed as “little extra increase”.

For the molecule `Oc1ccc2ccccc2c1SSc1c(O)ccc2ccccc12` [IPA-3, 1,1′-Dithiodi-2-naphthol], in series [1], the “increase of total cell number” value is given as “did not increase proliferation” and the “cell proliferation” value is on record as “synergistically increased”. Also, the cell death result in series [1] (highest concentration tested (5 μM)) is listed as “nearly total cell death”.

For the origin of these results see US10100285B2, “Ex vivo proliferation of epithelial cells” (PROPAGENIX INC., priority 2015, dated 2018).
